The subject of data set [1] is TNF production by macrophage. Conditions: TLR agonist stimulation, dose dependant; cited from earlier work.
For a further data set, the target named is MNK2 (Homo sapiens, UniProt Q9HBH9). In words: MNK2 enzymatic assay. It counts as biochemical.
For data set [2], the system named is eIF4e phosphorylation in Hela cell line. In words: eIF4e phosphorylation inhibition in Hela cell line. It is filed as cell-based. The note with it: Homo sapiens, cellular.
Another data set has as its target MNK1 (Homo sapiens, UniProt Q9BUB5). In words: MNK1 enzymatic assay. It counts as biochemical.

The structures appear in SMILES notation.

Chain of MNK1 (Q9BUB5 whole entry): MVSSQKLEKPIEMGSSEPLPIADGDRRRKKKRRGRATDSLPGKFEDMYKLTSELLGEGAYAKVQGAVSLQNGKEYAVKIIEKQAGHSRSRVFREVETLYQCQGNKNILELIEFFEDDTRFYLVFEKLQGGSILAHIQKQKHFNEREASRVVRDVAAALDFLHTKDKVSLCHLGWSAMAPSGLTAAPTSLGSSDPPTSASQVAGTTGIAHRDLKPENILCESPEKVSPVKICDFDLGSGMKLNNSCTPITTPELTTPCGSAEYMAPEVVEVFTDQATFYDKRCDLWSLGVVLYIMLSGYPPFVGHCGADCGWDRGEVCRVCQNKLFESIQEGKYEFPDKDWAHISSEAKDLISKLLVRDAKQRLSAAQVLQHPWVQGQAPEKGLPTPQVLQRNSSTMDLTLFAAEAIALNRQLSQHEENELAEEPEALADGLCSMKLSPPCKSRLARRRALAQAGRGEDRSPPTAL
Chain of MNK2 (Q9HBH9 whole entry): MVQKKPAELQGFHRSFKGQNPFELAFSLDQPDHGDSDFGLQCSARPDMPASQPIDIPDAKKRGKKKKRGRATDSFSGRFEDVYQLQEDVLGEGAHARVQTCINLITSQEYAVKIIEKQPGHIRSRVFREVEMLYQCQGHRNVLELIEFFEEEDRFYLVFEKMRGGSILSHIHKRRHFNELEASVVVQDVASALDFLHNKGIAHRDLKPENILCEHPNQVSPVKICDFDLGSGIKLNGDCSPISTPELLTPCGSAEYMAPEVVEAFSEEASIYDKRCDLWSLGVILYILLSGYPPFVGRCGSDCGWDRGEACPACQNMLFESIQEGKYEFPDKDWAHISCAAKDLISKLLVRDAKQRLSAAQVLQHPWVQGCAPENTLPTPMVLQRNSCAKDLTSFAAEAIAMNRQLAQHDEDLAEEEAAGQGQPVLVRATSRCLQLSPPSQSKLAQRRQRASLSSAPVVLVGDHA

Consider `Nc1ncnc2n[nH]c(Nc3ccc(F)cc3)c12` [CGP57380], for which the “production / release of TNF” value in data set [1] is on record as “inhibits”.
`Nc1cc(C#Cc2cnc3cnc(-c4ccc(C(=O)N5CCOCC5)cc4)cn23)ccn1` [Example 88, (4-(3-((2-aminopyridin-4-yl)ethynyl)imidazo[1,2-a]pyrazin-6-yl)phenyl)(morpholino)methanone] yielded a melting point of 143.5 to 144.2 °C.
Still for that read-out and setting: in the case of `O=C(c1ccc(-c2cn3c(C#Cc4ccnc5[nH]ncc45)cnc3cn2)cc1)N1CCOCC1` [Example 90, (4-(3-((1H-pyrazolo[3,4-b]pyridin-4-yl)ethynyl)imidazo[1,2-a]pyrazin-6-yl)phenyl) (morpholino)methanone] it was 192.8 to 193.8 °C; in that of `Nc1cc(C#Cc2cnc3cnc(-c4ccc(C(=O)N5CCOCC5)c(Cl)c4)cn23)ccn1` [Example 93, (4-(3-((2-aminopyridin-4-yl)ethynyl)imidazo[1,2-a]pyrazin-6-yl)-2-chlorophenyl) (morpholino)methanone], 119.8 to 121.1 °C.
Same read-out and setting: then `O=C(c1ccc(-c2ccc3ncc(C#Cc4ccncc4)n3c2)cc1)N1CCOCC1` [Example 94, morpholino(4-(3-(pyridin-4-ylethynyl)imidazo[1,2-a]pyridin-6-yl)phenyl)methanone], with 165 to 166 °C; and `Cc1cnccc1C#Cc1cnc2ccc(-c3ccc(C(=O)N4CCOCC4)cc3)cn12` [Example 95, (4-(3-((3-methylpyridin-4-yl)ethynyl)imidazo[1,2-a]pyridin-6-yl)phenyl) (morpholino)methanone], with 99 to 104 °C; and `Nc1cc(C#Cc2cnc3ccc(-c4ccc(C(=O)N5CCOCC5)cc4)cn23)ccn1` [Example 96, (4-(3-((2-aminopyridin-4-yl)ethynyl)imidazo[1,2-a]pyridin-6-yl)phenyl)(morpholino)methanone], with 133 to 138 °C.
`O=C(c1ccc(-c2ccc3ncc(C#Cc4ccncc4)n3c2)cc1)N1CCNCC1` [Example 109, piperazin-1-yl(4-(3-(pyridin-4-ylethynyl)imidazo[1,2-a]pyridin-6-yl)phenyl)methanone] came in with a melting point of 125 to 130 °C. The same compound had an IC50 against MNK2 of less than 0.5 µM. Further, in data set [2], the concentration for half-maximal inhibition (IC50) is less than 5 µM. This compound also came in with a half-maximal inhibitory concentration (IC50) against MNK1 of less than 0.5 µM.
In turn, `O=C(c1ccc(-c2ccc3ncc(C#Cc4ccnc5[nH]ccc45)n3c2)cc1)N1CCNCC1` [Example 110, (4-(3-((1H-pyrrolo[2,3-b]pyridin-4-yl)ethynyl)imidazo[1,2-a]pyridin-6-yl)phenyl)(piperazin-1-yl)methanone] gave a melting point of 242 to 245 °C. The IC50 at MNK2 was less than 0.5 µM. For the same compound, the half-maximal inhibitory concentration (IC50) in data set [2] is less than 5 µM. The compound further showed an IC50 on MNK1 of less than 0.5 µM.
The compound `O=C(c1ccc(-c2ccn3ncc(C#Cc4ccncc4)c3n2)cc1)N1CCOCC1` [Example 114, morpholino(4-(3-(pyridin-4-ylethynyl)pyrazolo[1,5-a]pyrimidin-5-yl)phenyl)methanone] registered a melting point of 206 to 209 °C. Further, the half-maximal inhibitory concentration (IC50) at MNK2 was less than 0.5 µM. In data set [2], this compound gave an IC50 of less than 5 µM. At MNK1, this compound had an IC50 of less than 0.5 µM.
Consider `O=C(c1ccc(-c2ccn3ncc(C#Cc4ccncc4)c3n2)cc1)N1CCNCC1` [Example 115, piperazin-1-yl(4-(3-(pyridin-4-ylethynyl)pyrazolo[1,5-a]pyrimidin-5-yl)phenyl)methanone], for which the melting point was in the range of 120 to 136 °C. Further, at MNK2, the half-inhibitory concentration (IC50) was less than 0.5 µM. For the same compound, in data set [2], the IC50 is less than 5 µM. The IC50 on MNK1 is less than 0.5 µM.
In the case of `Cc1cnccc1C#Cc1cnn2ccc(-c3ccc(C(=O)N4CCOCC4)cc3)nc12` [Example 116, (4-(3-((3-methylpyridin-4-yl)ethynyl)pyrazolo[1,5-a]pyrimidin-5-yl)phenyl)(morpholino)methanone], the melting point was in the range of 233 to 236 °C. The same compound registered a half-maximal inhibitory concentration (IC50) against MNK2 of less than 0.5 µM. In data set [2], the half-inhibitory concentration (IC50) was less than 5 µM. On MNK1, this compound showed an IC50 of less than 0.5 µM.
Compound `Nc1cc(C#Cc2cnn3ccc(-c4ccc(C(=O)N5CCOCC5)cc4)nc23)ccn1` [Example 117, (4-(3-((2-aminopyridin-4-yl)ethynyl)pyrazolo[1,5-a]pyrimidin-5 yl)phenyl)(morpholino)methanone] registered a melting point of 129.8 to 130.6 °C.
With `Nc1ncc(C#Cc2cnc3ccc(-c4ccc(C(=O)N5CCOCC5)cc4)nn23)s1` [Example 121, (4-(3-((2-aminothiazol-5-yl)ethynyl)imidazo[1,2-b]pyridazin-6-yl)phenyl) (morpholino)methanone], the melting point was in the range of 245 to 254 °C. On MNK2, the IC50 is less than 0.5 µM. Moreover, in data set [2], the IC50 is less than 5 µM. This compound gave an IC50 against MNK1 of less than 0.5 µM.

By melting point is commonly meant the temperature, or range, at which the solid turns liquid. One may read the IC50 as the midpoint of a concentration-inhibition curve. A lower IC50 goes with greater potency.

Values taken from US10544149B2, “Bicyclic alkyne derivatives and uses thereof” (Agency for Science, Technology and Research, priority 2013, dated 2020).
